Key:
Assay in all cases: SelectScreen kinase panel
Type in all cases: binding
ALK2 = molecular target: T1, ALK2 (Homo sapiens, UniProt Q04771)
T1 construct: purchased Invitrogen / ThermoFisher SelectScreen
Method: (§1) The ability of NIK to catalyze the hydrolysis of adenosine-5′-triphosphate (ATP) was monitored using the Transcreener ADP (adenosine-5′-diphosphate) assay (Bell Brook Labs, Fitchburg, WI). Purified human NIK kinase domain (a.a. 340–694) (0.5 nM) or mouse NIK kinase domain (a.a. 329–675) (1 nM) derived from a baculovirus-infected insect cell expression system was incubated with test compounds for 0.5–2 h in 50 mM HEPES buffer (pH 7.2) containing 10 mM MgCl2, 2 mM dithiothreitol, 10 μM ATP, 0.01% Triton X-100, 0.1% gamma-globulins from bovine blood, 1% dimethylsulfoxide (DMSO), 7 μg/mL ADP antibody and 5 nM ADP-MR121 633 tracer. Reactions were quenched by the addition of 20 mM EDTA and 0.01% Brij 35. The tracer bound to the antibody was displaced by the ADP generated during the NIK reaction, which caused a decrease in fluorescence polarization that was measured by laser excitation at 633 nm with a Fluorescence Correlation Spectroscopy Plus reader (Evotec AG). Equilibrium dissociation constant (Ki) values for NIK inhibitors are calculated from plots of activity vs. inhibitor concentration using Morrison’s quadratic equation that accounts for the potential of tight binding, and by also applying the conversion factor that accounted for competitive inhibition and the concentration of substrate used in the assay relative to its Michaelis constant (Km). The Ki values with hPKD1 (PKCμ) were determined using the same assay conditions as for NIK. Ki measurements for hKHS1 and hLRRK2, as well as broad kinase selectivity profiling for SMI1, were carried out by Invitrogen using their SelectScreen kinase assay panel (ThermoFisher Scientific, Madison, WI). The vendor offered two types of kinase activity assays, a peptide phosphorylation assay (Z′-LYTE) and an ADP quantitation assay (Adapta), as well as one type of kinase ATP site competitive binding assay (LanthaScreen). See vendor web site for technology and protocol details for each specific kinase assay.
(§2) The average % Inhibition of each kinase is reported (Supplementary Table 1).

ASK1 = molecular target: T2, ASK1 (Homo sapiens, UniProt Q99683)
T2 construct: purchased Invitrogen / ThermoFisher SelectScreen
Method: as §1, §2

AVCR2B = molecular target: T3, AVCR2B (Homo sapiens, UniProt Q13705)
T3 construct: purchased Invitrogen / ThermoFisher SelectScreen
T3 sequence (Q13705 19-512): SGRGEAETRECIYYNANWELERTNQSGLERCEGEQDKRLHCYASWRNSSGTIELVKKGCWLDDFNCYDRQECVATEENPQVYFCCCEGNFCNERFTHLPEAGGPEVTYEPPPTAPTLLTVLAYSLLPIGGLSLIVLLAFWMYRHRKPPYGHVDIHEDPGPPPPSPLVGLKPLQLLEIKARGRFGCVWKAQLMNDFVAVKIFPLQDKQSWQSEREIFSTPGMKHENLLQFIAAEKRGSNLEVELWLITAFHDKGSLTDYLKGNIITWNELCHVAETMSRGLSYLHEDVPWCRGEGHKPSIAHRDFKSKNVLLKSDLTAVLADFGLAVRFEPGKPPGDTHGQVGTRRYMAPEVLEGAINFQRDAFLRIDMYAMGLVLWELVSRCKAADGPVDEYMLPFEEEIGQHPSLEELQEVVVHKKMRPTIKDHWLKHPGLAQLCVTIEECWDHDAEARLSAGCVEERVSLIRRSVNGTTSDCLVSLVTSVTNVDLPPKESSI
Method: as §1, §2

B -Raf = molecular target: T4, B -Raf (Homo sapiens, UniProt P15056)
T4 construct: purchased Invitrogen / ThermoFisher SelectScreen
Method: as §1, §2

BMPR1A = molecular target: T5, BMPR1A (Homo sapiens, UniProt P36894)
T5 construct: purchased Invitrogen / ThermoFisher SelectScreen
T5 sequence (P36894 24-532): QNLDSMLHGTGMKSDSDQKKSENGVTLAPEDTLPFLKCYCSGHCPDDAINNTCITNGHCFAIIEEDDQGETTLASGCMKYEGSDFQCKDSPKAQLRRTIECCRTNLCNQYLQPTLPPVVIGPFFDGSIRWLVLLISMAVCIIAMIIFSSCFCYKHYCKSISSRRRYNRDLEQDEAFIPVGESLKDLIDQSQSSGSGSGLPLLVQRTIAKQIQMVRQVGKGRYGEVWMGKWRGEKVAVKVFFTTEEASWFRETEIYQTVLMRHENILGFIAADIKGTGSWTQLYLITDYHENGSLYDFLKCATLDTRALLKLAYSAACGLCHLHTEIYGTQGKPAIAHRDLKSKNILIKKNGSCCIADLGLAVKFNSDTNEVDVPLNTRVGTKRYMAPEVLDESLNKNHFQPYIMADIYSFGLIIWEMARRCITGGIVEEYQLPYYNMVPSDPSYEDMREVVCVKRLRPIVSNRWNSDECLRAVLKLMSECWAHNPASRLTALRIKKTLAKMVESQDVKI
Method: as §1, §2

CAMKK2 = molecular target: T6, CAMKK2 (Homo sapiens, UniProt Q96RR4)
T6 construct: purchased Invitrogen / ThermoFisher SelectScreen
Method: as §1, §2

CDK8/cyclinC = molecular target: T7, CDK8/cyclinC (Homo sapiens, UniProt P49336)
T7 construct: purchased Invitrogen / ThermoFisher SelectScreen
Method: as §1, §2

DDR1 = molecular target: T8, DDR1 (Homo sapiens, UniProt Q08345)
T8 construct: purchased Invitrogen / ThermoFisher SelectScreen
Method: as §1, §2

DMPK = molecular target: T9, DMPK (Homo sapiens, UniProt Q09013)
T9 construct: purchased Invitrogen / ThermoFisher SelectScreen
T9 sequence (Q09013 whole entry): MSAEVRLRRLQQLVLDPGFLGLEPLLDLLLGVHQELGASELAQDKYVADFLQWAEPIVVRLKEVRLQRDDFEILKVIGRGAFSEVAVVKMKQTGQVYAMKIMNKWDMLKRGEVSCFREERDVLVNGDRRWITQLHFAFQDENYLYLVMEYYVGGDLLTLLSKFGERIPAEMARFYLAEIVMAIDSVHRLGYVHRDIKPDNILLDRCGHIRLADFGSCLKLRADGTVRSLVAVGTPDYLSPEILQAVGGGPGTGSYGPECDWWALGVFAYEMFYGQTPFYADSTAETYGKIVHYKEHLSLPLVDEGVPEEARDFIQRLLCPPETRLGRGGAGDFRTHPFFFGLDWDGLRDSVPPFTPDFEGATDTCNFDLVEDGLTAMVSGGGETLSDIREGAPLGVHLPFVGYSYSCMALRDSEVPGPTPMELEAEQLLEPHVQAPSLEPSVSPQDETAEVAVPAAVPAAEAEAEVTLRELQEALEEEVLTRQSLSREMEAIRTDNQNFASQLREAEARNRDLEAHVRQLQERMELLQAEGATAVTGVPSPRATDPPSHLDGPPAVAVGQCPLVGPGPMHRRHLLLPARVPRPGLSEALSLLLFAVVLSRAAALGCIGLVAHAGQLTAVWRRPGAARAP
Method: as §1, §2

DRAK1 = molecular target: T10, DRAK1 (Homo sapiens, UniProt Q9UEE5)
T10 construct: purchased Invitrogen / ThermoFisher SelectScreen
Method: as §1, §2

EphA3 = molecular target: T11, EphA3 (Homo sapiens, UniProt P29320)
T11 construct: purchased Invitrogen / ThermoFisher SelectScreen
Method: as §1, §2

JNK2 = molecular target: T12, JNK2 (Homo sapiens, UniProt P45984)
T12 construct: purchased Invitrogen / ThermoFisher SelectScreen
Method: as §1, §2

JNK3 = molecular target: T13, JNK3 (Homo sapiens, UniProt P53779)
T13 construct: purchased Invitrogen / ThermoFisher SelectScreen
Method: as §1, §2

MEK1 = molecular target: T14, MEK1 (Homo sapiens, UniProt Q02750)
T14 construct: purchased Invitrogen / ThermoFisher SelectScreen
Method: as §1, §2

MEK3 = molecular target: T15, MEK3 (Homo sapiens, UniProt P46734)
T15 construct: purchased Invitrogen / ThermoFisher SelectScreen
T15 sequence (P46734 whole entry): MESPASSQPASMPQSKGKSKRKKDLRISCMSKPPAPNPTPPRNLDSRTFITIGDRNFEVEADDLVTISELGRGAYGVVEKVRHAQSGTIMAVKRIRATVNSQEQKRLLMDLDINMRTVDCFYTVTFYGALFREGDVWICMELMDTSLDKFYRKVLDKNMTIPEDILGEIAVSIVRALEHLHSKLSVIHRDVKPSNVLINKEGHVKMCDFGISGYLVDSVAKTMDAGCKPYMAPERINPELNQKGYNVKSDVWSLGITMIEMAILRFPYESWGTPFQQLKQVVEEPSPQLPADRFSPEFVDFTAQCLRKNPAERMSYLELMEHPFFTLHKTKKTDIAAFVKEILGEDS
Method: as §1, §2

MKK6 = molecular target: T16, MKK6 (Homo sapiens, UniProt P52564)
T16 construct: purchased Invitrogen / ThermoFisher SelectScreen
Method: as §1, §2

MKNK2 = molecular target: T17, MKNK2 (Homo sapiens, UniProt Q9HBH9)
T17 construct: purchased Invitrogen / ThermoFisher SelectScreen
T17 sequence (Q9HBH9 whole entry): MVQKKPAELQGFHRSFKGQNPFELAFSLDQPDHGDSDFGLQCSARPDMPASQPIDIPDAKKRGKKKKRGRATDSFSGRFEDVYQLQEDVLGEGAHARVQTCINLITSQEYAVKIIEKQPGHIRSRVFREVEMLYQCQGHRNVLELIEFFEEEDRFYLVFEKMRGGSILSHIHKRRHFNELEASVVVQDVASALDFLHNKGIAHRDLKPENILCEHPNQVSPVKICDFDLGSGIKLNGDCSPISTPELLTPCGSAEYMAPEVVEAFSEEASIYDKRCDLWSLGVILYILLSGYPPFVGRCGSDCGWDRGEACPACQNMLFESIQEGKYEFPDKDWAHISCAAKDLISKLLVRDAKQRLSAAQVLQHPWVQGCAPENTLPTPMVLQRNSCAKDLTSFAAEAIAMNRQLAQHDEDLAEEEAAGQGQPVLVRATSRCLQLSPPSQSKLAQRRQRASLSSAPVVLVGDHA
Method: as §1, §2

MYLK = molecular target: T18, MYLK (Homo sapiens, UniProt Q15746)
T18 construct: purchased Invitrogen / ThermoFisher SelectScreen
Method: as §1, §2

NLK = molecular target: T19, NLK (Homo sapiens, UniProt Q9UBE8)
T19 construct: purchased Invitrogen / ThermoFisher SelectScreen
T19 sequence (Q9UBE8 whole entry): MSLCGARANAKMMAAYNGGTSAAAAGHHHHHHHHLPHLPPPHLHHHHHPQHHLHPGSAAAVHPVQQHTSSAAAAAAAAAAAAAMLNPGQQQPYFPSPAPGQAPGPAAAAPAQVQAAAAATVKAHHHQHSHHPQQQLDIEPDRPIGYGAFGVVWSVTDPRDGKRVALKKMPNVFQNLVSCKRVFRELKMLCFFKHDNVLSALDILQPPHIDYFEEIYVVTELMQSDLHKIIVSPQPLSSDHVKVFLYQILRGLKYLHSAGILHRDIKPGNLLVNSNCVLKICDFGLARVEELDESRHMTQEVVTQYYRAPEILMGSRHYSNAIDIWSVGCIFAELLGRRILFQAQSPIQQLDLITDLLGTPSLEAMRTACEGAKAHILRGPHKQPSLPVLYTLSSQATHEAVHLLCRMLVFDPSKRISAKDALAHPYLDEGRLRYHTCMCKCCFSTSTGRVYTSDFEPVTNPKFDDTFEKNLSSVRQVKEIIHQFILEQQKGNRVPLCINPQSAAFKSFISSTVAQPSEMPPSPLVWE
Method: as §1, §2

RAF1 (Y340D, Y341D) = molecular target: T20, RAF1 (Y340D, Y341D) (Homo sapiens, UniProt P04049, Y340D/Y341D)
T20 construct: purchased Invitrogen / ThermoFisher SelectScreen
Method: as §1, §2

RIPK2 = molecular target: T21, RIPK2 (Homo sapiens, UniProt O43353)
T21 construct: purchased Invitrogen / ThermoFisher SelectScreen
T21 sequence (O43353 whole entry): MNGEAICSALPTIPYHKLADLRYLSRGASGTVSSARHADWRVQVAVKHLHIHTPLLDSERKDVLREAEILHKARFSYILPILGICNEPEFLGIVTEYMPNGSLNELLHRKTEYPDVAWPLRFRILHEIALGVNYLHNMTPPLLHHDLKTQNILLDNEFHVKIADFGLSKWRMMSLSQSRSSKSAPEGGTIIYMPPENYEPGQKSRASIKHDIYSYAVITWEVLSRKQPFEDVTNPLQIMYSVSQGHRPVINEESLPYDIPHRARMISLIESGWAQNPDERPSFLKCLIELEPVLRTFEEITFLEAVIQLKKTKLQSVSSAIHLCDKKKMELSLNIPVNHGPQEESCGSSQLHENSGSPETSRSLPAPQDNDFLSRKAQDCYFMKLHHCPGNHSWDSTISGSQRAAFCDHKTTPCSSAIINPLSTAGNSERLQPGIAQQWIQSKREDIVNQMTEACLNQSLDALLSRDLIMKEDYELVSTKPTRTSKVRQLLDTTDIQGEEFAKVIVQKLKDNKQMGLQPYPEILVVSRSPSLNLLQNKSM
Method: as §1, §2

SLK = molecular target: T22, SLK (Homo sapiens, UniProt Q9H2G2)
T22 construct: purchased Invitrogen / ThermoFisher SelectScreen
Method: as §1, §2

STK16 = molecular target: T23, STK16 (Homo sapiens, UniProt O75716)
T23 construct: purchased Invitrogen / ThermoFisher SelectScreen
Method: as §1, §2

STK33 = molecular target: T24, STK33 (Homo sapiens, UniProt Q9BYT3)
T24 construct: purchased Invitrogen / ThermoFisher SelectScreen
Method: as §1, §2

TEC = molecular target: T25, TEC (Homo sapiens, UniProt P42680)
T25 construct: purchased Invitrogen / ThermoFisher SelectScreen
Method: as §1, §2

TGFBR1 = molecular target: T26, TGFBR1 (Homo sapiens, UniProt P36897)
T26 construct: purchased Invitrogen / ThermoFisher SelectScreen
Method: as §1, §2

TTK = molecular target: T27, TTK (Homo sapiens, UniProt P33981)
T27 construct: purchased Invitrogen / ThermoFisher SelectScreen
T27 sequence (P33981 whole entry): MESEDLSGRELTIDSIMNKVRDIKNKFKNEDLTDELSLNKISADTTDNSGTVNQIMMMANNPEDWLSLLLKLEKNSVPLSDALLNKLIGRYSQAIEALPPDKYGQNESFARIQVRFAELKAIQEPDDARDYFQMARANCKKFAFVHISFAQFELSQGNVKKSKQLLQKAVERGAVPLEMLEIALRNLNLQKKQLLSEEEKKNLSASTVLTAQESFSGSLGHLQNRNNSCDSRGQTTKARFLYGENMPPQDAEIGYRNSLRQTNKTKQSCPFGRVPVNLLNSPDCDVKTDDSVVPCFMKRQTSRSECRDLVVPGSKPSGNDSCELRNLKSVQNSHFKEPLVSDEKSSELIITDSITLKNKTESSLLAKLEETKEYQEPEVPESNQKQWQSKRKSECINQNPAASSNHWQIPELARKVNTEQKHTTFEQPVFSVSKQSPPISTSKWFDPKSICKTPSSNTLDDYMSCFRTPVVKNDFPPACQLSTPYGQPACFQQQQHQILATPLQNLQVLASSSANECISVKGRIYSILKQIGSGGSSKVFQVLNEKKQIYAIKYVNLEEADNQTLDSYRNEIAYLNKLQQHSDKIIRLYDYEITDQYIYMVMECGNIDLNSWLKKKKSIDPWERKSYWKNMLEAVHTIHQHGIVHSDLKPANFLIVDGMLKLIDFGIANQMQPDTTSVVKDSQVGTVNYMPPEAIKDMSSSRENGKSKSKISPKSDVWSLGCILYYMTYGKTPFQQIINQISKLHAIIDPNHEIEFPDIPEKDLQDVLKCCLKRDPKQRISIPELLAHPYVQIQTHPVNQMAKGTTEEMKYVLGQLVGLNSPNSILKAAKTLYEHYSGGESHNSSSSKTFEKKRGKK
Method: as §1, §2

WEE1 = molecular target: T28, WEE1 (Homo sapiens, UniProt P30291)
T28 construct: purchased Invitrogen / ThermoFisher SelectScreen
Method: as §1, §2

ZAK = molecular target: T29, ZAK (Homo sapiens, UniProt Q9NYL2)
T29 construct: purchased Invitrogen / ThermoFisher SelectScreen
Method: as §1, §2

T1 sequence (Q04771 21-509): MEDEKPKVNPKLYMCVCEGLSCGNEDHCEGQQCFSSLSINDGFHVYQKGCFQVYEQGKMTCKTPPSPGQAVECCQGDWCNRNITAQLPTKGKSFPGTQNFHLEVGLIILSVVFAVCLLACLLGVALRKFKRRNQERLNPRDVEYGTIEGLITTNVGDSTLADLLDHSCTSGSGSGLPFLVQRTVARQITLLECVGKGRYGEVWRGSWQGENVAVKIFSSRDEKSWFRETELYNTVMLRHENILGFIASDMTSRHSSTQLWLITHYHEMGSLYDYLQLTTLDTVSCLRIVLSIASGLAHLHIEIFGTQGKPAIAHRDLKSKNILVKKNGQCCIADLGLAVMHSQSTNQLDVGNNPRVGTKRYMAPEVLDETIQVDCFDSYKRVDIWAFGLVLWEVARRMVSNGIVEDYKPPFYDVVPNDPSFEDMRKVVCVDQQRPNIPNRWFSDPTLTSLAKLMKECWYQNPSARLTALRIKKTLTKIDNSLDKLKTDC

SMILES: COc1cc(C(N)=O)nc(-c2cccc(C#C[C@]3(O)CCN(C)C3=O)c2)c1 [NIK SMI1]
- inhibition at 1 µM (ALK2): 5.8%
- inhibition at 1 µM (ASK1): 3.8%
- inhibition at 1 µM (AVCR2B): 0.8%
- inhibition at 1 µM (B -Raf): -0.3%
- inhibition at 1 µM (BMPR1A): -3.9%
- inhibition at 1 µM (CAMKK2): 1.1%
- inhibition at 1 µM (CDK8/cyclinC): 7.8%
- inhibition at 1 µM (DDR1): 2.7%
- inhibition at 1 µM (DMPK): 1.6%
- inhibition at 1 µM (DRAK1): 3.4%
- inhibition at 1 µM (EphA3): -5.2%
- inhibition at 1 µM (JNK2): 3%
- inhibition at 1 µM (JNK3): 4.6%
- inhibition at 1 µM (MEK1): 43.1%
- inhibition at 1 µM (MEK3): 11.4%
- inhibition at 1 µM (MKK6): 13.2%
- inhibition at 1 µM (MKNK2): 23.3%
- inhibition at 1 µM (MYLK): 7.5%
- inhibition at 1 µM (NLK): 4.2%
- inhibition at 1 µM (RAF1 (Y340D, Y341D)): -1.5%
- inhibition at 1 µM (RIPK2): -0.1%
- inhibition at 1 µM (SLK): 2.6%
- inhibition at 1 µM (STK16): 1%
- inhibition at 1 µM (STK33): 3.9%
- inhibition at 1 µM (TEC): 1.1%
- inhibition at 1 µM (TGFBR1): -9.4%
- inhibition at 1 µM (TTK): 13.2%
- inhibition at 1 µM (WEE1): 6.2%
- inhibition at 1 µM (ZAK): -0.8%

Source: paper PMC5766581, “NF-κB inducing kinase is a therapeutic target for systemic lupus erythematosus” (Nature Communications, 2018)
